According to PMC7160362, “A Polyamine-Based Dinitro-Naphthalimide Conjugate as Substrates for Polyamine Transporters Preferentially Accumulates in Cancer Cells and Minimizes Side Effects in vitro and in vivo” (Frontiers in Chemistry, 2020):
Where two headings read alike, the source gives them in different places.

Legend:
p53 in Snu-739 cells = assay: Western blot of p53; assay type: cell-based; conditions: Snu-739, 24 h
Description: We performed western blot analysis to determine the contents of p53 after treatment by 5c for 5, 10, and 15 μM for 24 h. After washing three times with PBS, we harvested and centrifuged the cells, which were lysed with a RIPA buffer (Beyotime, China). The total contents of protein were determined by a BCA assay kit (Beyotime, China). At 100°C for 10 min, the total lysates were denatured in a 5 × SDS-loading buffer. Equal amounts of total proteins were separated by 12% SDS-PAGE. Dried skimmed milk (5%) was used to block the separated protein in Tris Buffered Saline Tween (TBST) at room temperature for 1 h. And then the corresponding primary antibodies and the appropriate HRP-conjugated secondary antibody were used to incubate with the separated protein. By ECL plus reagents (Beyotime, Jiangsu, China), we detected the expression of p53.

[1] = system: MDA-MB-231 cells (triple negative breast cancer); assay: MTT cytotoxicity assay; assay type: cell-based; conditions: MDA-MB-231; for IC50: Homo sapiens, MTT, 48 h
Description: (§1) We incubated hepatic carcinoma (Snu-368 and Snu-739), breast carcinoma (MDA-MB-231 and MCF-7), cisplatin-sensitive lung cancer cells A549, and cisplatin-resistant lung cancer cells A549cisR in 96-well plates in a 5% CO2 atmosphere at 37°C for 24 h (5,000 cells/well). After adding drugs in freshly prepared culture medium (100 μl) and incubating for another 48 h, we added 20 μl MTT (5 mg/ml) and incubated for another 3 h. At last, after the medium was removed, 150 μl DMSO was added. By using a Bio-Rad 680 microplate reader, the absorbance was measured at 570 nm and the IC50 values were calculated using the GraphPad Prism software based on three parallel experiments.
(§2) In vitro assays were firstly conducted to evaluate the inhibitory effect of polyamine-based naphthalimide conjugates 5a-5c, 7a-7b, and 11a-11b on six cancer cell lines, namely, Snu-368 and Sun-739 (hepatoma cell line), MCF-7 (breast carcinoma), MDA-MB-231 (triple negative breast cancer), cisplatin-sensitive lung cancer A549, and resistant A549cisR cells by using traditional MTT tests. Two classic antitumor agents in clinic trials, amonafide and cisplatin, were chosen as the reference drugs (Table 1). The preliminary structure–activity relationship (SAR) can be obtained from the in vitro biological results.

[2] = system: cisplatin-sensitive lung cancer cells A549; assay: MTT cytotoxicity assay; assay type: cell-based; conditions: A549; for IC50: Homo sapiens, MTT, 48 h
Description: as §1, §2

[3] = system: Snu-739 cells (hepatic carcinoma); assay: MTT cytotoxicity assay; assay type: cell-based; conditions: for IC50: SNU-739, MTT, 48 h
Description: as §1, §2

[4] = system: Snu-368 cells (hepatic carcinoma); assay: MTT cytotoxicity assay; assay type: cell-based; conditions: for IC50: MTT, 48 h
Description: as §1, §2

[5] = system: MCF-7 cells (breast carcinoma); assay: MTT cytotoxicity assay; assay type: cell-based; conditions: for IC50: Homo sapiens, MCF7, MTT, 48 h
Description: as §1, §2

[6] = system: cisplatin-resistant lung cancer cells A549cisR; assay: MTT cytotoxicity assay; assay type: cell-based; conditions: for RF (resistance factor): IC50 in A549cisR cells/IC50 in A549 cells; for IC50: MTT, 48 h
Description: as §1, §2

[7] = system: Put, Spd, and Spm in Snu-739 cells; assay: Polyamine contents assay (HPLC, dansyl derivatives); assay type: cell-based; conditions: Snu-739, 24 h
Source text: (§3) According to our previous report (Wang et al., [2012]; Li et al., [2016], [2018]; Dai et al., [2017a]; Ma et al., [2017a],[b], [2018]; Liu et al., [2019]), the contents of Put, Spd, and Spm were detected by a G1321A fluorescence detector in both Snu-368 and Snu-739 cells. Cells were harvested and dansyl chloride was used as the derivation reagent. After converting to the corresponding dansyl derivatives, Put, Spd, and Spm were separated by using High Performance Liquid Chromatogra (HPLC) (Agilent 1260, Agilent Technologies, USA) with a C18 chromatographic column (25 × 4.6 mm, 5 μm). As the internal standard substance, 1,6-diaminohexane was used. The excitation and emission wavelengths were 340 and 515 nm, separately. The mobile phase was methanol–water from 65:35 to 100:0 within 30 min.

[8] = system: Put, Spd, and Spm in Snu-368 cells; assay: as above; assay type: cell-based; conditions: Snu-368, 24 h
Source text: as §3

[9] = system: HL-7702 (normal liver cell); assay: MTT cytotoxicity on matched normal cells; assay type: cell-based; conditions: for IC50: Homo sapiens
Description: as §1
The selectivity for cancer cells over normal healthy cells is important for ideal anticancer agents, thereby mitigating undesired toxic side effects associated with chemotherapy. The selectivity of polyamine-based dinitro-naphthalimide conjugates 5a-5c was evaluated by Snu-368 and Snu-739 (hepatic carcinoma), and the matched normal cells HL-7702 (normal liver cell). Moreover, dinitro-naphthalimide conjugates 5a-5c (SI 1.94–7.47) show lower cytotoxicity in normal cells.

Snu-739 cells = assay: Annexin V-FITC/PI staining, flow cytometry; assay type: cell-based
Description: Annexin V-FITC/PI staining was used to detect the apoptosis of Snu-739 cells by FCM (flow cytometry). Firstly, we plated the cells in six-well plates (1 × 10^5 cells/well). 5c 10 μM and amonafide 10 μM were added and incubated for 24 h. And then we harvested the cells and washed three times with PBS. Then the protocol was stained according to our previous report (Wang et al., [2012]; Li et al., [2016], [2018]; Dai et al., [2017a]; Ma et al., [2017a],[b]; Ma et al., [2018]; Liu et al., [2019]) and was performed by FCM (BD Biosciences, San Jose, CA, USA).

[10] = system: polyamine oxidase (PAO) in Snu-368 cells; assay: PAO assay kit; assay type: cell-based; conditions: Snu-368, 10 μM, 24 h
Source text: (§4) We measured the total PAO level using a PAO assay kit according to our previous report (Liu et al., [2019]) (Hepeng Biotechnology, Cat. HEPENGBIO156).

[11] = system: polyamine oxidase (PAO) in Snu-739 cells; assay: PAO assay kit; assay type: cell-based; conditions: Snu-739, 10 μM, 24 h
Source text: as §4

HCC xenografts = assay: In vivo antitumor assay, HCC xenografts; conditions: for tumor suppression (inhibition rate, tumor weight): tail vein, once every day for 7 days
Source text: Healthy BALB/c mice (Cat. SCXK 2016-0006, Beijing, China) aged 5 weeks were used for the determination of anticancer activity. We obtained BALB/c mice from the Laboratory Animal Center, Academy of Military Medical Science. They were raised in compliance with the Guide for the Care and Use of Laboratory Animals. The weight of healthy BALB/c mice is 18–22 g.
We firstly injected HCC cells with 1 × 10^6 cells per mouse to determine the anticancer activity. After a week, the tumors increased to 80–120 mm^3. The mice were divided into four groups for 5c (3 mg/kg), 5c (5 mg/kg), the positive control amonafide (5 mg/kg), or the negative control physiological saline. We injected 5c or amonafide via the tail vein every day for a total of seven treatments. Body weight was determined every day. And then the mice were sacrificed after 7 days. The tumor tissues were weighed and the inhibition rate [((average tumor weight of negative control group – average tumor weight of the drug treated or positive control group)/average tumor weight of control group) × 100] was calculated. The organ index [(organ weight/body weight) × 100%] was also counted including heart, liver, kidney, lung, and spleen at the last day. Both 5c and amonafide were dissolved in glucose injection. And they were used immediately after preparation.
The highest FI levels in Snu-739 also indicate a significant therapy for HCC. Therefore, HCC animal models were used to test the in vivo antitumor activities. Mice bearing HCC xenografts were treated with 5c (3 mg/kg), 5c (5 mg/kg), the positive control amonafide (5 mg/kg), and normal saline (negative control) once every day for 7 days by tail vein (Figure 3).

[12] = system: six cancer cell lines (Snu-368, Snu-739, MCF-7, MDA-MB-231, A549, A549cisR); assay: MTT cytotoxicity assay, whole panel; assay type: cell-based; conditions: versus amonafide and cisplatin
Description: as §1, §2

O=C1c2cc([N+](=O)[O-])cc3cc([N+](=O)[O-])cc(c23)C(=O)N1CCCCNCCCNC1CC1 [5c]
p53 protein expression (p53 in Snu-739 cells): upregulated
IC50 [1]: 1.33 ± 0.12 µM
FI (fold increase) IC50(amonafide)/IC50(5c) [1]: 11.20
FI (fold increase) IC50(cisplatin)/IC50(5c) [1]: 12.02
FI (fold increase) IC50(amonafide)/IC50(5c) [2]: 3.59
FI (fold increase) IC50(cisplatin)/IC50(5c) [2]: 5.73
IC50 [2]: 1.92 ± 0.23 µM
IC50 [3]: 0.76 ± 0.05 µM
FI (fold increase) IC50(amonafide)/IC50(5c) ([3]; Snu-739): 17.08
FI (fold increase) IC50(cisplatin)/IC50(5c) ([3]; Snu-739): 13.18
IC50 [4]: 1.09 ± 0.1 µM
FI (fold increase) IC50(amonafide)/IC50(5c) ([4]; Snu-368): 12.83
FI (fold increase) IC50(cisplatin)/IC50(5c) ([4]; Snu-368): 15.02
IC50 [5]: 1.35 ± 0.15 µM
FI (fold increase) IC50(amonafide)/IC50(5c) ([5]; MCF-7): 4.36
FI (fold increase) IC50(cisplatin)/IC50(5c) ([5]; MCF-7): 7.11
FI (fold increase) IC50(amonafide)/IC50(5c) ([6]; A549cisR): 13.23
FI (fold increase) IC50(cisplatin)/IC50(5c) ([6]; A549cisR): 48.63
RF (resistance factor) [6]: 0.43
IC50 [6]: 0.83 ± 0.08 µM
FI (fold increase) amonafide/5c in RF column ([6]; ratio of RF values): 3.70
contents of Put, Spd, and Spm versus control group [7]: downregulated
contents of Put, Spd, and Spm versus control group [8]: downregulated
SI (selectivity index) IC50 in HL-7702/IC50 in Snu-368 [9]: 5.21
SI (selectivity index) IC50 in HL-7702/IC50 in Snu-739 [9]: 7.47
SI (selectivity index), range over Snu-368 and Snu-739 ([9]; HL-7702 versus Snu-368 and Snu-739): 5.21–7.47
IC50 ([9]; L02, normal liver cell, read-out: IC50 HL-7702): 5.68 ± 0.83 µM
early apoptotic cells (Snu-739 cells; 10 μM, 24 h): 35.00%
late apoptotic cells (Snu-739 cells; 10 μM, 24 h): 38.50%
apoptotic cells (Snu-739 cells; total of early and late): 73.50%
relative PAO activity versus control group [10]: 1.5–2 folds
relative PAO activity versus control group [11]: 1.5–2 folds
tumor suppression (inhibition rate, tumor weight) (HCC xenografts; 3 mg/kg): 57.97%
tumor suppression (inhibition rate, tumor weight) (HCC xenografts; 5 mg/kg): 65.90%
average tumor volume (HCC xenografts; day 7, control group 900 mm^3, dose not stated): 480 mm^3
organ weight indexes / toxicological profile in vivo (HCC xenografts; heart, liver, kidney, lung, spleen, end of experiment): no obvious pathological changes
FI (fold increase), range over cell lines [12]: 3.59–48.63

NCCCNCCCNCCCN1C(=O)c2cc(N)cc3cc(N)cc(c23)C1=O [11a]
IC50 [1]: 26 ± 2.56 µM
IC50 [2]: 28.3 ± 2.85 µM
IC50 [3]: 9.69 ± 0.98 µM
IC50 [4]: > 50 µM
IC50 [5]: 14.8 ± 1.45 µM
IC50 [6]: 16.3 ± 1.69 µM

O=C1c2cc([N+](=O)[O-])cc3cc([N+](=O)[O-])cc(c23)C(=O)N1CCCCNCCCCNC1CCCCC1 [5b]
IC50 [1]: 1.07 ± 0.1 µM
IC50 [2]: 1.75 ± 0.15 µM
IC50 [3]: 3.89 ± 0.35 µM
IC50 [4]: 2.72 ± 0.25 µM
IC50 [5]: 1.25 ± 0.1 µM
RF (resistance factor) [6]: 1.30
IC50 [6]: 2.27 ± 0.25 µM
SI (selectivity index) IC50 in HL-7702/IC50 in Snu-368 [9]: 2.78
SI (selectivity index) IC50 in HL-7702/IC50 in Snu-739 [9]: 1.94
IC50 ([9]; L02, read-out: IC50 HL-7702): 7.56 ± 0.43 µM

O=C1c2cc([N+](=O)[O-])cc3cc([N+](=O)[O-])cc(c23)C(=O)N1CCCCNCCCNC1CCCCC1 [5a]
IC50 [1]: 1.19 ± 0.12 µM
IC50 [2]: 2.17 ± 0.2 µM
IC50 [3]: 2.16 ± 0.1 µM
IC50 [4]: 2.94 ± 0.06 µM
IC50 [5]: 2.3 ± 0.18 µM
RF (resistance factor) [6]: 1.67
IC50 [6]: 3.62 ± 0.15 µM
SI (selectivity index) IC50 in HL-7702/IC50 in Snu-368 [9]: 2.14
SI (selectivity index) IC50 in HL-7702/IC50 in Snu-739 [9]: 2.92
IC50 ([9]; L02, read-out: IC50 HL-7702): 6.3 ± 0.23 µM

Nc1cc2c3c(cc(N)cc3c1)C(=O)N(CCCCNCCCNC1CC1)C2=O [7a]
IC50 [1]: 26.9 ± 2.65 µM
IC50 [2]: 14 ± 1.39 µM
IC50 [3]: 25.8 ± 2.9 µM
IC50 [4]: > 30 µM
IC50 [5]: 8.62 ± 0.85 µM
IC50 [6]: 17.4 ± 1.68 µM
